Experimental data as given in the NIST ThermoML archive (doi:10.1016/j.jct.2019.03.009).

Assay: mn = molality of the nth substance listed, in mol/kg
Details: 298.15 K, 101.3 kPa, Liquid, Taylor dispersion method

CCC(N)C(=O)O (stereo not drawn) [(.+-.)-α-aminobutyric acid] + O
binary diffusion coefficient (m1 = 0.001003): 8.42e-10 m2/s
binary diffusion coefficient (m1 = 0.005014): 8.41e-10 m2/s
binary diffusion coefficient (m1 = 0.01003): 8.39e-10 m2/s
binary diffusion coefficient (m1 = 0.02005): 8.38e-10 m2/s
binary diffusion coefficient (m1 = 0.05008): 8.35e-10 m2/s
binary diffusion coefficient (m1 = 0.1): 8.32e-10 m2/s
